Source: ChEMBL document CHEMBL4819147, “Design, synthesis and biological evaluation of novel molecules as potent PARP-1 inhibitors” (Bioorg Med Chem Lett, 2021)

Experiments:
HCT-116 [1] = experiment: Antiproliferative activity against BRCA2-deficient human HCT116 cells assessed as cell growth inhibition; type: functional, cell-based
HCC1937 = experiment: Antiproliferative activity against BRCA1-deficient human HCC1937 cells assessed as cell growth inhibition; type: functional, cell-based
[2] = Octanol-water partition coefficient, logP of the compound; type: physicochemical
[3] = biological target: T1, Poly [ADP-ribose] polymerase 1 (Homo sapiens, UniProt P09874); experiment: Inhibition of PARP1 (unknown origin)
T1 sequence (P09874 whole entry): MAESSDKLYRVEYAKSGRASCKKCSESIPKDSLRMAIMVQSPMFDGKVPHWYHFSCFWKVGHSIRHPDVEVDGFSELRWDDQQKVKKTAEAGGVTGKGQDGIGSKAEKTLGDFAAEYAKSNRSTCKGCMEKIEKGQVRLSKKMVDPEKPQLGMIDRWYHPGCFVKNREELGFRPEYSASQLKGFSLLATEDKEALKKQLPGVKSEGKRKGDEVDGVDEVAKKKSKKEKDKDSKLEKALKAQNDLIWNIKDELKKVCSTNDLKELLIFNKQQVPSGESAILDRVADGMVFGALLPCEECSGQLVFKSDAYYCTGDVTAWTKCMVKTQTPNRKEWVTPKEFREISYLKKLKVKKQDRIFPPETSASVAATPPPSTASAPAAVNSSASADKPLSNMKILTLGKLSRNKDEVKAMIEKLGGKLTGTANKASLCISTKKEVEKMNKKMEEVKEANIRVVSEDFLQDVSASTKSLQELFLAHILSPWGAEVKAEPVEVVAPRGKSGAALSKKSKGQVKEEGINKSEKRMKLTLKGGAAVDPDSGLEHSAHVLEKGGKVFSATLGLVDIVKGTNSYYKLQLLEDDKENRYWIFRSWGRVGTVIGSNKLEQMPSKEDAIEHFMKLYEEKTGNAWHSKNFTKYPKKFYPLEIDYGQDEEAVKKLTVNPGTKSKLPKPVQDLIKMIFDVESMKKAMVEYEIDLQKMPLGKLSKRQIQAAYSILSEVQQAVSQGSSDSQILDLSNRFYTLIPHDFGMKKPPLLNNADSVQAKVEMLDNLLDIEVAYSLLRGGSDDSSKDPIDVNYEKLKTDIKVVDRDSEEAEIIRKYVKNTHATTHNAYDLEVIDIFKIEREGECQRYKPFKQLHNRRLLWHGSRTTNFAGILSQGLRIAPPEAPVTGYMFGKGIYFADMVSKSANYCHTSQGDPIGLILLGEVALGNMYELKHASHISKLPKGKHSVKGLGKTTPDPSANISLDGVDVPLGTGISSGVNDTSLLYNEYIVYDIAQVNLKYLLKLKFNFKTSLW

[4] = biological target: T1, Poly [ADP-ribose] polymerase 1; experiment: Inhibition of PARP1 (unknown origin) at 10 nM relative to control
[5] = Half life in human liver microsomes incubated for 50 mins; type: ADME, Microsome
[6] = Intrinsic clearance in human liver microsomes incubated for 50 mins; type: ADME, Microsome
HCT-116 [7] = experiment: Potency index, ratio of olaparibIC50 to test compound IC50 for antiproliferative activity against BRCA2-deficient human HCT116 cells assessed as cell growth inhibition; type: functional

Row | IC50 (HCT-116 [1]) [nM] | IC50 (HCC1937) [nM] | IC50 [3] [nM] | inhibition [4] [%] | SMILES | also measured
1 | 5860 | 13000 |  |  | O=C(c1cc(Cc2n[nH]c(=O)c3ccccc23)ccc1F)N1CCN(C(=O)C2CC2)CC1 [OLAPARIB] | logP [2]: 2.79
2 | 161000 | 130000 | 0.23 |  | NC(=O)c1cncc2[nH]c(C3CCN(C(=O)c4cc(Cc5n[nH]c(=O)c6ccccc56)ccc4F)CC3)nc12 | 
3 |  |  | 0.49 |  | O=C(c1cc(Cc2n[nH]c(=O)c3ccccc23)ccc1F)N1CCn2c(nc3ccccc32)C1 | 
4 |  |  |  | 47 | O=c1[nH]nc(Cc2ccc(F)c(CN3CCC(c4nc5ccccc5[nH]4)CC3)c2)c2ccccc12 | 
5 | 11.9 | 11.7 | 0.4 |  | O=C(c1cc(Cc2n[nH]c(=O)c3ccccc23)ccc1F)N1CCn2c(nc3ccc(Cl)cc32)C1 | 
6 | 10 | 11.6 | 0.47 |  | Cc1ccc2nc3n(c2c1)CCN(C(=O)c1cc(Cc2n[nH]c(=O)c4ccccc24)ccc1F)C3 | 
7 | 490 | 610 | 0.19 | 100 | O=C(c1cc(Cc2n[nH]c(=O)c3ccccc23)ccc1F)N1CCN(c2nc3ccccc3[nH]2)CC1 | logP [2]: 4.15
8 |  |  |  | 42 | O=c1[nH]nc(Cc2ccc(F)c(CN3CCN(c4nc5ccccc5[nH]4)CC3)c2)c2ccccc12 | 
9 |  |  |  | 40 | COc1nnc(Cc2ccc(F)c(C(=O)N3CCC(c4nc5c(C(N)=O)cncc5[nH]4)CC3)c2)c2ccccc12 | 
10 |  |  | 0.63 | 100 | O=C(c1cc(Cc2n[nH]c(=O)c3ccccc23)ccc1F)N1CCC(c2nc3ccccc3[nH]2)CC1 | 
11 |  |  | 1.7 | 100 | CCOc1ncc(C(N)=O)c2nc(C3CCN(C(=O)c4cc(Cc5n[nH]c(=O)c6ccccc56)ccc4F)CC3)[nH]c12 | 
12 |  |  | 2.4 | 98 | COc1ncc(C(N)=O)c2nc(C3CCN(C(=O)c4cc(Cc5n[nH]c(=O)c6ccccc56)ccc4F)CC3)[nH]c12 | 
13 | 6.62 | 12.7 | 0.51 |  | O=C(c1cc(Cc2n[nH]c(=O)c3ccccc23)ccc1F)N1CCn2c(nc3ccc(F)cc32)C1 | half-life [5]: 173 min; CLH [6]: 0.04 mL/min/mg; Ratio IC50 (HCT-116 [7]): 885; logP [2]: 4.83
